In publication PMC12295086, “CtGH76, a Glycoside Hydrolase 76 from Chaetomium thermophilum, with Elongated Glycan-Binding Canyon” (International Journal of Molecular Sciences, 2025):

Target: T1, CtGH76 (Thermochaetoides thermophila, UniProt G0S5Y9)
T1 construct: gene CTHT_0025410; M1-M50 omitted (precursor 439 aa, predicted signal peptide M1-V60); N-terminal His10-tag removed with TEV; pET28a, E. coli SHuffle T7 Express; one molecule per asymmetric unit
Assay: X-ray crystal structure, crystal soaking
Assay type: binding
Settings: soaked with mannose; subsites −4, −2 and +3

T1 sequence (G0S5Y9 entry or part of it): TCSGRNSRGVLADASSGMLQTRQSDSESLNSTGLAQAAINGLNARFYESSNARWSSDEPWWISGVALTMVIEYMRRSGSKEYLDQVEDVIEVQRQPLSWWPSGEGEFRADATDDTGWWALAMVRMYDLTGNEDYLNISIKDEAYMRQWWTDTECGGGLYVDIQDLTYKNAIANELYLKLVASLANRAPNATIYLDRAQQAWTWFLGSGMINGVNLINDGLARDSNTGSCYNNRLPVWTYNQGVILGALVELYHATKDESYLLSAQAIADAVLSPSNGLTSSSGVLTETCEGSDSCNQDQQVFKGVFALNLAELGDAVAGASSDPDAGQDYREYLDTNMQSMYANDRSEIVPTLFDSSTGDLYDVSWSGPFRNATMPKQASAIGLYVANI

With OC[C@H]1OC(O)[C@@H](O)[C@@H](O)[C@@H]1O (stereo partly shown) [mannose] the “X-ray crystal structure, crystal soaking” value was “Soaking with mannose in CtGH76 identified potential sugar-binding subsites analogous to CtDfg5”.
